# Like-named read-outs stand apart in the source and are kept apart here.
# How the values were obtained:
# [1] = Stability in the presence of fetal calf serum; assay type: in vitro ADME
# Experimental: The influence of serum on the stability of primaquine (PQ) and its derivatives is determined by incubating these compounds at 37° C. at a concentration of 100 μg/ml in 95% fetal calf serum (FCS, Flow Laboratories) or human serum and phosphate-buffered saline (0.15 M PBSA, pH 7.2) as a control. All the solutions are sterilized by filtration on a Millipore filter (Millex GV) of porosity 0.20 μm.
# At interval of time, 1-ml samples are withdrawn and the serum proteins are then extracted from them by precipitation with acetonitrile. For this purpose, an identical volume of acetonitrile is added to each sample. After vigorous mixing in a Vortex mixer, the samples are left for 1 hour at 4° C. and protected from light and then centrifuged for 5 minutes at 12,000 g. The supernatants are collected and then analyzed by HPLC (20- to 50-μl aliquot) under the standard conditions.
# The results for the stability of primaquine and its two derivatives in the presence of fetal calf serum are recorded in Table 1; the results are expressed as a % of the initial concentration (time 0) after extraction.
# ^a : The compounds are incubated at 37° C. in the presence of
# fetal calf serum (95% final) and then analyzed by spectrophotometry after
# (§1) ^b : The results represent the relative concentration of primaquine
# (PQ) and of derivatives (PQX) in terms of the incubation time, expressed
# as a percentage of the initial concentration (time 0) after extraction
# female Swiss OF1 mice = test: Acute toxicity in mice after a single i.v. administration; assay type: in vivo; details: single i.v., mg PQ diphosphate equivalent/kg; weight loss not exceeding 5% during 5 days
# Experimental: (§2) The acute toxicity in terms of a single administered dose is determined on female Swiss OF1 mice weighing 22 to 25 g. A series of dilutions of each compound is injected intravenously into groups of 10 mice (0.1 ml per 10 g of weight).
# (§3) The lethal dose for 50% of mice (LD50) is determined by linear regression of the logits of the percentage of surviving animals as a function of the logarithm of the dose injected (in mg PQ diphosphate equivalent/kg) (Logit Weighted Transformation, Berkson J., 1953; J. Am. Stat. Assoc. 48, 565-599).
# (§4) ^a : The products are administered i.v. to groups of 10 female Swiss
# (§5) ^b : Maximum tolerated dose (MTD), defined as the highest dose
# (§6) The acute toxicity in terms of a single administered dose is determined under the same conditions and according the protocol of Example 3.
# [2] = as above; assay type: in vivo; details: mouse, in vivo, iv, single i.v., mg PQ diphosphate equivalent/kg; weight loss not exceeding 5% during 5 days; read-out: Maximum tolerated dose (MTD)
# Experimental: as §2, §3, §4, §5, §6
# [3] = Hemolytic effect on human red cells; assay type: cell-based; details: human, red cells, pH 7.4, 1 hour, 37° C., read-out: Hemolysis (% of total hemoglobin concentration)
# Experimental: (§15) Two important toxic effects of PQ were assessed on the two derivatives: the hemolytic effect and the conversion of hemoglobin to methemoglobin.
# (§16) A+ blood is washed twice in 0.15M phosphatebuffered saline at pH 7.4 containing 20 mM glucose (GPBS), and then resuspended at a concentration of 50% in the same buffer. To this suspension, an equal volume of compound dissolved in GPBS at different concentrations (test), or of GPBS (control) is added. The final hematocrit of the suspension is 25%. After 60 minutes' incubation at 37° C., the concentration of hemoglobin and methemoglobin is determined on the total suspension, and the concentration of hemoglobin present in the supernatant after centrifugation (extracellular hemoglobin) is determined, by the cyanmethemoglobin and benzidine methods (Fairbanks V.F., 1976, in "Fundamentals of Clinical Chemistry, M.W. Tietz Editors, Saunders").
# human red cells = test: Methemoglobin production in human red cells; assay type: cell-based; details: 1 hour, 37° C.
# Experimental: as §15, §16
# human erythrocytes = details: for Concentration combined with erythrocytes (% initial concentration): human red cells 10^9/ml, 100 μg/ml
# Experimental: Fresh human blood (A+) on CPDA is washed twice in RPMI medium containing 20 mM glucose at pH 7.4, and then resuspended in the same medium at 37° C. to obtain a 20% suspension of red cells (2×10^9 erythrocytes/ml). To 1 ml of this suspension, 1 ml of a solution of PQ or derivatives at a concentration of 0.250 mM in the same medium at 37° C. is added.
# After different incubation times at 37° C., 0.5 ml of sample is withdrawn and then transferred to an Eppendorf tube containing 0.4 ml of silicone oil (Merck, density 1.06 g/ml).
# After centrifugation for 30 seconds at 12,000 g, the supernatant and the silicone oil are removed, while the cells in the pellet are lyzed by adding 0.5 ml of water. The quinoline compound present in combination with the cell lysate is then extracted by precipitation of the cell proteins with acetonitrile (0.5 ml) and thereafter analyzed by HPLC under the standard conditions.
# The intracellular concentration of quinoline derivative is obtained by subtracting the concentration of compound present in the extracellular medium from the total concentration in the cell lysate. The contaminating extracellular volume is measured using tritiated inulin.
# Plasmodium berghei = test: Therapeutic index in mice; assay type: in vivo, P. berghei; details: ratio of LD50 to CPD50, mice, i.v.
# Excerpt: The therapeutic index is defined as the ratio of the toxicity, expressed as LD50, to the therapeutic activity, expressed as CPD50, in mice.
# ^b : The therapeutic index (TI) is the ratio of LD50 to […]
# [4] = Hydrolysis in the presence of lysosomal enzymes; assay type: in vitro ADME, rat; details: rat, liver lysosomal enzymes, pH 4.5, 37° C., read-out: Relative concentration of compound (% of initial concentration)
# Experimental: (§7) The compounds, at a final concentration of 15 μg/ml, are incubated in 50 mM acetate buffer, pH 4.5, at 37° C. in the presence of 5 mM cysteine and a lysosomal enzyme fraction (0.15 mg protein/ml) purified from rat liver.
# (§8) The purified lysosomal fraction is prepared according to the method described by Trouet (1974, Meth. Enzymol., 31, 323-334).
# (§9) At intervals of time, corresponding samples are taken from the incubation. The enzyme reaction is stopped by adding 10 μl of 10M HCl per ml of sample. A volume of 20 μl is withdrawn and analyzed directly by HPLC under the standard conditions.
# (§10) ^a : The compounds are incubated at pH 4.5 in the presence of
# (§11) lysosomal enzymes (0.15 mg protein/ml) and 5 mM cysteine, and then
# (§12) analyzed by spectrophotometry after HPLC. The initial purity of the
# as §1
# (§13) (PQ) and derivatives (PQX) in terms of the incubation time, expressed as
# (§14) percentage of the initial concentration (time 0) after extraction.
# lysosomal enzymes = test: Hydrolysis in the presence of lysosomal enzymes; assay type: in vitro ADME, rat; details: pH 4.5, 37° C., 0 h
# Experimental: as §7, §8, §9, §10, §11, §12, §1, §13, §14
# [5] = fetal calf serum 95%, 37° C., 0 h
compound,measurement,setting,value
"COc1cc(NC(C)CCCN)c2ncccc2c1 (stereo not drawn) [Primaquine, 6-methoxy-8-(4-amino-1-methylbutylamino)quinoline, reference compound]",remaining at 1 h,"[1]; bovine, fetal calf serum, fetal calf serum 95%, 37° C., 1 h, read-out: Relative concentration of compound (% of initial concentration)",98%
same,remaining at 2 h,"[1]; bovine, fetal calf serum, fetal calf serum 95%, 37° C., 2 h, read-out: Relative concentration of compound (% of initial concentration)",87%
same,remaining at 3 h,"[1]; bovine, fetal calf serum, fetal calf serum 95%, 37° C., 3 h, read-out: Relative concentration of compound (% of initial concentration)",77%
same,remaining at 6 h,"[1]; bovine, fetal calf serum, fetal calf serum 95%, 37° C., 6 h, read-out: Relative concentration of compound (% of initial concentration)",34%
same,Relative concentration of compound (% of initial concentration),[1]; [5],100%
same,Second HPLC peak (Y) from primaquine,[1]; [5],0%
same,Second HPLC peak (Y) from primaquine,"[1]; fetal calf serum 95%, 37° C., 1 h",0%
same,Second HPLC peak (Y) from primaquine,"[1]; fetal calf serum 95%, 37° C., 2 h",5%
same,Second HPLC peak (Y) from primaquine,"[1]; fetal calf serum 95%, 37° C., 3 h",10%
same,Second HPLC peak (Y) from primaquine,"[1]; fetal calf serum 95%, 37° C., 6 h",11%
same,Second HPLC peak (Y) from primaquine,"[1]; fetal calf serum 95%, 37° C., 24 h",5%
same,Relative concentration of compound (% of initial concentration),"[1]; fetal calf serum 95%, 37° C., 24 h, 1440 min",2%
same,Relative concentration of compound (% of initial concentration),"[1]; fetal calf serum 95%, 37° C., 24 h, listed as primaquine, 1440 min",7%
same,"Second peak (Y), maximum","[1]; fetal calf serum, after 2 hours' incubation",≤ 10%
same,Stability in the presence of serum,"[1]; serum, 37° C.",unstable
same,Maximum tolerated dose (MTD),female Swiss OF1 mice,24 (2.1) mg/kg
same,MTD,[2],24 mg/kg
same,"hemolysis at 1 h, 1000 µM",[3]; 1 mM,2.1%
same,"hemolysis at 1 h, 2000 µM",[3]; 2 mM,2.3%
same,"hemolysis at 1 h, 5000 µM",[3]; 5 mM,2.8%
same,"hemolysis at 1 h, 10000 µM",[3]; 10 mM,4.7%
same,Methemoglobin (% of total hemoglobin concentration),human red cells; 1 mM,1.2 (0.5) %
same,Methemoglobin (% of total hemoglobin concentration),human red cells; 2 mM,3.4 (1.8) %
same,Methemoglobin (% of total hemoglobin concentration),human red cells; 5 mM,5.8 (0.2) %
same,Methemoglobin (% of total hemoglobin concentration),human red cells; 10 mM,11.5 (4.2) %
same,Methemoglobin (% of total hemoglobin concentration),"human red cells; 10 mM, listed as PQ",11.5%
same,Time for which concentration in red cells is maintained,human erythrocytes,at least one hour
same,Concentration combined with erythrocytes (% initial concentration),human erythrocytes; 5 min,17.7 (1.2) %
same,Concentration combined with erythrocytes (% initial concentration),"human erythrocytes; 5 min, listed as PQ",18%
same,Concentration combined with erythrocytes (% initial concentration),human erythrocytes; 10 min,18.0 (3.4) %
same,Concentration combined with erythrocytes (% initial concentration),human erythrocytes; 60 min,18.8 (0.2) %
same,Accumulation in erythrocytes,human erythrocytes; not told,taken up rapidly by erythrocytes
same,Therapeutic index (TI),Plasmodium berghei,1.7
same,remaining at 1 h,[4]; 1 h,94%
same,remaining at 2 h,[4]; 2 h,96%
same,remaining at 3 h,[4]; 3 h,84%
same,remaining at 6 h,[4]; 6 h,87%
same,remaining at 24 h,[4]; 24 h,68%
same,Relative concentration of compound (% of initial concentration),lysosomal enzymes,100%

# From patent publication US5110935A, “New compounds which are active against the tissue forms of malaria and method of preparation” (Ire-Celltarg, S.A., priority 1988, dated 1992)
